This note sets out measurements from patent publication US9096602B2, “Substituted pyrrolo[2,3-B]pyrazines as ATR kinase inhibitors” (Vertex Pharmaceuticals Incorporated, priority 2011, dated 2015).

The structures appear in SMILES notation.

T1 sequence (Q13535 whole entry): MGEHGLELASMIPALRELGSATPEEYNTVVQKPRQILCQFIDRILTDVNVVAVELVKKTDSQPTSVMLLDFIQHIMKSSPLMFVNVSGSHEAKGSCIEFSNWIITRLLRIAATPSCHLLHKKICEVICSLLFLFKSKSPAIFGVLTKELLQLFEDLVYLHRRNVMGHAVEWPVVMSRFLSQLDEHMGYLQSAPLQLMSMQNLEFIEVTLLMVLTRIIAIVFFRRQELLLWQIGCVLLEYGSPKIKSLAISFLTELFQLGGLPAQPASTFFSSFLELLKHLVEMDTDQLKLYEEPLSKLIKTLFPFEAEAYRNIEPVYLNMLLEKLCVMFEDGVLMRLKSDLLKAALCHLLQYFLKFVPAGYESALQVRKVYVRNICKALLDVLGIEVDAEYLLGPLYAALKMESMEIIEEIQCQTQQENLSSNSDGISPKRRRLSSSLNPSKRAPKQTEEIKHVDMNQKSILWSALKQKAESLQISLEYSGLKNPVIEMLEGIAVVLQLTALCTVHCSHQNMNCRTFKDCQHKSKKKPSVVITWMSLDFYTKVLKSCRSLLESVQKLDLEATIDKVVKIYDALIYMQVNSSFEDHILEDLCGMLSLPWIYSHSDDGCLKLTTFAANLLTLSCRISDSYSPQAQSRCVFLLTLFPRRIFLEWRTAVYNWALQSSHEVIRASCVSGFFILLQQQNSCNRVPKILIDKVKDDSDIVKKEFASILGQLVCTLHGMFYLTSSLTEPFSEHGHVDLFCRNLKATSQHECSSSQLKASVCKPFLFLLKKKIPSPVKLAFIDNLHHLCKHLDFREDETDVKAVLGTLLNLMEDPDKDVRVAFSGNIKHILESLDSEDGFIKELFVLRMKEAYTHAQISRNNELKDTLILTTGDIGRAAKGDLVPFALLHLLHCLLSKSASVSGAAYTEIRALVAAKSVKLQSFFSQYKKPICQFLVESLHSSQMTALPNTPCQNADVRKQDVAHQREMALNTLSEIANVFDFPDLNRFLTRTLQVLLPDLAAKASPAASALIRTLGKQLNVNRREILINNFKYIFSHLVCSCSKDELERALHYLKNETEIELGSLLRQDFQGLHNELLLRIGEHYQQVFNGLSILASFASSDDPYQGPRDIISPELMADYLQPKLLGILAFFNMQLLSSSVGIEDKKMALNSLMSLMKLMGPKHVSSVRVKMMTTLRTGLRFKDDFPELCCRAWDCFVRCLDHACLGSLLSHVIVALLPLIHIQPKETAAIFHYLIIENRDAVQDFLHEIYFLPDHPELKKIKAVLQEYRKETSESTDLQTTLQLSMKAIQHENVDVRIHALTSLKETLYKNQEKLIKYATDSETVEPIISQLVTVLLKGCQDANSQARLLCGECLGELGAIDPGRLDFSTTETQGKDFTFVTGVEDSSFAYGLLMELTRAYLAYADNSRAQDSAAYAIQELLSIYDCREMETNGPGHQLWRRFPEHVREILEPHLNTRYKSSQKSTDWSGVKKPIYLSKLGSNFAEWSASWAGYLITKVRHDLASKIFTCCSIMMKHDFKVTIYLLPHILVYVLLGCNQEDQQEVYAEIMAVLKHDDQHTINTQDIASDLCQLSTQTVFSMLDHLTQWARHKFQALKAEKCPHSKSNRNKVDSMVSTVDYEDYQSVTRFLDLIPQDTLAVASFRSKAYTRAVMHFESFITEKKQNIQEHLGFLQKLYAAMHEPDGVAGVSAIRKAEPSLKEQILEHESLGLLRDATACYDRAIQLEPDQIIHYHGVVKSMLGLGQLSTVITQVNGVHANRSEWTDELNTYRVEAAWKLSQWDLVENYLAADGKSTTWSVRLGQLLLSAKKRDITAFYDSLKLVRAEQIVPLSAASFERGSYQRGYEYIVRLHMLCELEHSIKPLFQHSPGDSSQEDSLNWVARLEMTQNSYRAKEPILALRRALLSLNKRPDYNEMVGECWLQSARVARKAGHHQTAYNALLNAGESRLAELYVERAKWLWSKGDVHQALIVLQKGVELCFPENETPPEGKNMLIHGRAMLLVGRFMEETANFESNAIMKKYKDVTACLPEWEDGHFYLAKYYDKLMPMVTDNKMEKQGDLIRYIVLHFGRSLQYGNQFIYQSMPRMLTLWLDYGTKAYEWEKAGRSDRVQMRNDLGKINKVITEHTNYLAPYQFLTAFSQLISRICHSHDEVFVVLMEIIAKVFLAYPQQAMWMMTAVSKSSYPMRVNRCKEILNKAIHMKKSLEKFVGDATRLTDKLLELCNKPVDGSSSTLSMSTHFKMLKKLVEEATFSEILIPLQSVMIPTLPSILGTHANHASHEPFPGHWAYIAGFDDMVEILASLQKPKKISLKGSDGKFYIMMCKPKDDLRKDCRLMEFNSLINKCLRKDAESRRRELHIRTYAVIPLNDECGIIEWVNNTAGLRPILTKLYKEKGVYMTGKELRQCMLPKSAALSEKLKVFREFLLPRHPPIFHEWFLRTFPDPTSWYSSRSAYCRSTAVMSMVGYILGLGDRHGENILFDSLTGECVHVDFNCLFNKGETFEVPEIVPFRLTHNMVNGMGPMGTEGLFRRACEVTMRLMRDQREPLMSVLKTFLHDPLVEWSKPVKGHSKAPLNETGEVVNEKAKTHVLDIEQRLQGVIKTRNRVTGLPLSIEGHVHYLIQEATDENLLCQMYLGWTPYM

The first experiment has as its target T1, ATR kinase (full-length ATR) (Homo sapiens, UniProt Q13535).
T1 construct: Assays were carried out at 25° C. in the presence of 5 nM full-length ATR
Description: ATR Inhibition Assay (radioactive-phosphate incorporation). It is filed as biochemical. Conditions: Ki(app); 5 nM full-length ATR, 10 μM ATP, 800 μM target peptide, 25° C.; class symbols; read-out: ATR Inhibition Ki. The protocol: Compounds were screened for their ability to inhibit ATR kinase using a radioactive-phosphate incorporation assay. Assays were carried out in a mixture of 50 mM Tris/HCl (pH 7.5), 10 mM MgCl2 and 1 mM DTT. Final substrate concentrations were 10 μM [y-33P]ATP (3mCi 33P ATP/mmol ATP, Perkin Elmer) and 800 μM target peptide ([…]).
Assays were carried out at 25° C. in the presence of 5 nM full-length ATR. An assay stock buffer solution was prepared containing all of the reagents listed above, with the exception of ATP and the test compound of interest. […] The plate was pre-incubated for 10 minutes at 25° C. and the reaction initiated by addition of 15 μL [y-33P]ATP (final concentration 10 μM).
The reaction was stopped after […] by the addition of 30 μL 0.1M phosphoric acid containing 2 mM ATP. A multiscreen phosphocellulose filter 96-well plate (Millipore, Cat no. MAPHN0B50) was pretreated with 100 μL 0.2M phosphoric acid prior to the addition of 45 μL of the stopped assay mixture. The plate was washed with 5×200 μL 0.2M phosphoric acid.
After removing mean background values for all of the data points, Ki(app) data were calculated from non-linear regression analysis of the initial rate data using the Prism software package (GraphPad Prism version 3.0cx for Macintosh, GraphPad Software, San Diego Calif., USA).
Consider `CC(C)S(=O)(=O)c1ccc(-c2cnc3[nH]cc(C(=O)NCC4CCCCC4O)c3n2)cc1` (centres unmarked) [Compound I-101, N-[(2-hydroxycyclohexyl)methyl]-2-(4-isopropylsulfonylphenyl)-5H-pyrrolo[2,3-b]pyrazine-7-carboxamide], for which the Ki was less than 100 nM.

As to `CC(C)S(=O)(=O)c1ccc(-c2cnc3[nH]cc(C(=O)N4CCCc5ccccc54)c3n2)cc1` [Compound I-27, 3,4-dihydro-2H-quinolin-1-yl-[2-(4-isopropylsulfonylphenyl)-5H-pyrrolo[2,3-b]pyrazin-7-yl]methanone], the Ki lay within 100 to 500 nM.

As for `CC(C)S(=O)(=O)c1ccc(-c2cnc3[nH]cc(C(=O)N[C@@H](CO)c4ccccc4)c3n2)cc1` [Compound I-56, N-[(1R)-2-hydroxy-1-phenyl-ethyl]-2-(4-isopropylsulfonylphenyl)-5H-pyrrolo[2,3-b]pyrazine-7-carboxamide], the Ki was 100 to 500 nM.

Consider `CC(C)S(=O)(=O)c1ccc(-c2cnc3[nH]cc(C(=O)N4CCN(C)CC4)c3n2)cc1` [Compound I-114, [2-(4-isopropylsulfonylphenyl)-5H-pyrrolo[2,3-b]pyrazin-7-yl]-(4-methylpiperazin-1-yl)methanone], for which the Ki was in the range of 500 to 5000 nM.

`CC(C)S(=O)(=O)c1ccc(-c2cnc3[nH]cc(C(=O)NC4CNC4)c3n2)cc1` [Compound I-122, N-(azetidin-3-yl)-2-(4-isopropylsulfonylphenyl)-5H-pyrrolo[2,3-b]pyrazine-7-carboxamide]: the Ki was 500 to 5000 nM.

For `CC[C@@H](CO)NC(=O)c1c[nH]c2ncc(-c3ccc(S(=O)(=O)C(C)C)cc3)nc12` [Compound I-117, N-[(1S)-1-(hydroxymethyl)propyl]-2-(4-isopropylsulfonylphenyl)-5H-pyrrolo[2,3-b]pyrazine-7-carboxamide], the Ki lay within 100 to 500 nM.

Take `CC(C)S(=O)(=O)c1ccc(-c2cnc3[nH]cc(C(=O)NC(CCO)c4cccc(N)c4)c3n2)cc1` (centres unmarked) [Compound I-79, N-[1-(3-aminophenyl)-3-hydroxy-propyl]-2-(4-isopropylsulfonylphenyl)-5H-pyrrolo[2,3-b]pyrazine-7-carboxamide]: the Ki was 100 to 500 nM.

Regarding `CC(C)S(=O)(=O)c1ccc(-c2cnc3[nH]cc(C(=O)NCc4ccncc4)c3n2)cc1` [Compound I-60, 2-(4-isopropylsulfonylphenyl)-N-(4-pyridylmethyl)-5H-pyrrolo[2,3-b]pyrazine-7-carboxamide], the Ki was 100 to 500 nM.

Take `Cc1ccccc1CNC(=O)c1c[nH]c2ncc(-c3ccc(S(=O)(=O)C(C)C)cc3)nc12` [Compound I-15, 2-(4-isopropylsulfonylphenyl)-N-(o-tolylmethyl)-5H-pyrrolo[2,3-b]pyrazine-7-carboxamide]: the Ki is less than 100 nM.

With `CC(C)S(=O)(=O)c1ccc(-c2cnc3[nH]cc(C(=O)NC4CCC4)c3n2)cc1` [Compound I-97, N-cyclobutyl-2-(4-isopropylsulfonylphenyl)-5H-pyrrolo[2,3-b]pyrazine-7-carboxamide], the Ki is 100 to 500 nM.

Take `CC(C)S(=O)(=O)c1ccc(-c2cnc3[nH]cc(C(=O)Nc4ccc(CCO)cc4)c3n2)cc1` [Compound I-24, N-[4-(2-hydroxyethyl)phenyl]-2-(4-isopropylsulfonylphenyl)-5H-pyrrolo[2,3-b]pyrazine-7-carboxamide]: the Ki was less than 100 nM.

Regarding `CC(C)S(=O)(=O)c1ccc(-c2cnc3[nH]cc(C(=O)N[C@@H](CCO)c4ccccc4)c3n2)cc1` [Compound I-51, N-[(1S)-3-hydroxy-1-phenyl-propyl]-2-(4-isopropylsulfonylphenyl)-5H-pyrrolo[2,3-b]pyrazine-7-carboxamide], the Ki fell in the range of 500 to 5000 nM.

`CC(C)S(=O)(=O)c1ccc(-c2cnc3[nH]cc(C(=O)NCC4(O)CCCCC4)c3n2)cc1` [Compound I-94, N-[(1-hydroxycyclohexyl)methyl]-2-(4-isopropylsulfonylphenyl)-5H-pyrrolo[2,3-b]pyrazine-7-carboxamide]: the Ki was less than 100 nM.

For `CC(C)S(=O)(=O)c1ccc(-c2cnc3[nH]cc(C(=O)N[C@@H](C)c4ccccc4)c3n2)cc1` [Compound I-35, 2-(4-isopropylsulfonylphenyl)-N-[(1S)-1-phenylethyl]-5H-pyrrolo[2,3-b]pyrazine-7-carboxamide], the Ki lay in the range of 500 to 5000 nM.

As for `CC(C)S(=O)(=O)c1ccc(-c2cnc3[nH]cc(C(=O)N4CCCCC4CO)c3n2)cc1` (centres unmarked) [Compound I-115, [2-(hydroxymethyl)-1-piperidyl]-[2-(4-isopropylsulfonylphenyl)-5H-pyrrolo[2,3-b]pyrazin-7-yl]methanone], the Ki lay in the range of 500 to 5000 nM.

As for `CC(C)S(=O)(=O)c1ccc(-c2cnc3[nH]cc(C(=O)N[C@@H](C)c4ccccc4F)c3n2)cc1` [Compound I-71, N-[(1S)-1-(2-fluorophenyl)ethyl]-2-(4-isopropylsulfonylphenyl)-5H-pyrrolo[2,3-b]pyrazine-7-carboxamide], the Ki lay in the range of 100 to 500 nM.

On to `CC(C)S(=O)(=O)c1ccc(-c2cnc3[nH]cc(C(=O)NC(c4ccccc4)c4ccccc4)c3n2)cc1` [Compound I-108, N-benzhydryl-2-(4-isopropylsulfonylphenyl)-5H-pyrrolo[2,3-b]pyrazine-7-carboxamide], for which the Ki was 500 to 5000 nM.

Turning to `Cc1ccc(CNC(=O)c2c[nH]c3ncc(-c4ccc(S(=O)(=O)C(C)C)cc4)nc23)cc1` [Compound I-17, 2-(4-isopropylsulfonylphenyl)-N-(p-tolylmethyl)-5H-pyrrolo[2,3-b]pyrazine-7-carboxamide], the Ki is less than 100 nM.

`CC(C)S(=O)(=O)c1ccc(-c2cnc3[nH]cc(C(=O)NCc4ccc5c(c4)OCO5)c3n2)cc1` [Compound I-125, N-(1,3-benzodioxol-5-ylmethyl)-2-(4-isopropylsulfonylphenyl)-5H-pyrrolo[2,3-b]pyrazine-7-carboxamide]: the Ki is less than 100 nM.

Regarding `CC(C)S(=O)(=O)c1ccc(-c2cnc3[nH]cc(C(=O)NCc4ccccc4CO)c3n2)cc1` [Compound I-129, N-[[2-(hydroxymethyl)phenyl]methyl]-2-(4-isopropylsulfonylphenyl)-5H-pyrrolo[2,3-b]pyrazine-7-carboxamide], the Ki was less than 100 nM.

`CC(C)S(=O)(=O)c1ccc(-c2cnc3[nH]cc(C(=O)NCc4cccc(Cl)c4F)c3n2)cc1` [Compound I-92, N-[(3-chloro-2-fluoro-phenyl)methyl]-2-(4-isopropylsulfonylphenyl)-5H-pyrrolo[2,3-b]pyrazine-7-carboxamide]: the Ki is less than 100 nM.

Consider `CC(C)S(=O)(=O)c1ccc(-c2cnc3[nH]cc(C(=O)Nc4cccc(CO)c4)c3n2)cc1` [Compound I-26, N-[3-(hydroxymethyl)phenyl]-2-(4-isopropylsulfonylphenyl)-5H-pyrrolo[2,3-b]pyrazine-7-carboxamide], for which the Ki was less than 100 nM.

Staying with this experiment, now noted: Ki(app); 5 nM full-length ATR, 10 μM ATP, 800 μM target peptide, 25° C.; given as numeric lower bound without unit; read-out: ATR Inhibition Ki.
`CC(C)S(=O)(=O)c1ccc(-c2cnc3[nH]cc(C(=O)N4CCN(C(=O)OC(C)(C)C)CC4)c3n2)cc1` [Compound I-132, tert-butyl 4-[2-(4-isopropylsulfonylphenyl)-5H-pyrrolo[2,3-b]pyrazine-7-carbonyl]piperazine-1-carboxylate]: the Ki was greater than 2500 nM.

On to `CC(C)S(=O)(=O)c1ccc(-c2cnc3[nH]cc(C(=O)N4CC5CCC(C4)O5)c3n2)cc1` [Compound I-116, [2-(4-isopropylsulfonylphenyl)-5H-pyrrolo[2,3-b]pyrazin-7-yl]-(8-oxa-3-azabicyclo[3.2.1]octan-3-yl)methanone], for which the Ki is greater than 1000 nM.

In the case of `CC(C)S(=O)(=O)c1ccc(-c2cnc3[nH]cc(C(=O)N4CCCCC4)c3n2)cc1` [Compound I-39, [2-(4-isopropylsulfonylphenyl)-5H-pyrrolo[2,3-b]pyrazin-7-yl]-(1-piperidyl)methanone], the Ki is greater than 250 nM.

With `CC(C)S(=O)(=O)c1ccc(-c2cnc3[nH]cc(C(=O)NCc4cccc(Cl)c4)c3n2)cc1` [Compound I-46, N-[(3-chlorophenyl)methyl]-2-(4-isopropylsulfonylphenyl)-5H-pyrrolo[2,3-b]pyrazine-7-carboxamide], the Ki was greater than 250 nM.

As for `CC(C)S(=O)(=O)c1ccc(-c2cnc3[nH]cc(C(=O)N4CCOCC4)c3n2)cc1` [Compound I-120, [2-(4-isopropylsulfonylphenyl)-5H-pyrrolo[2,3-b]pyrazin-7-yl]-morpholino-methanone], the Ki was greater than 2500 nM.

Regarding `CC(C)S(=O)(=O)c1ccc(-c2cnc3[nH]cc(C(=O)N4CCCC(N(C)C)C4)c3n2)cc1` (centres unmarked) [Compound I-98, [3-(dimethylamino)-1-piperidyl]-[2-(4-isopropylsulfonylphenyl)-5H-pyrrolo[2,3-b]pyrazin-7-yl]methanone], the Ki was greater than 4000 nM.

For `CC(C)S(=O)(=O)c1ccc(-c2cnc3[nH]cc(C(=O)N4CCCN(C(=O)OC(C)(C)C)CC4)c3n2)cc1` [Compound I-134, tert-butyl 4-[2-(4-isopropylsulfonylphenyl)-5H-pyrrolo[2,3-b]pyrazine-7-carbonyl]-1,4-diazepane-1-carboxylate], the Ki is greater than 40 nM.
